From ChEMBL document CHEMBL1201862, “PubChem BioAssay data set” (2004)
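Following 48 hours of exposure in 96-well plates, responses at five concentrations were used to interpolate endpoints linearly. Here, GI50 denotes the concentration required for 50% inhibition of growth.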 Active and inactive are the calls of the source. Rule as the data show it: active = GI50 up to about 1.1 µM and inactive = higher.

What was measured:
Experiment in all cases: growth of human tumour cells (NCI), 48 h
SN12C = test system: SN12C
TK-10 = test system: TK-10
HOP-62 = test system: HOP-62
UO-31 = test system: UO-31
HCT-116 = test system: HCT-116
M14 = test system: M14
MDA-MB-435 = test system: MDA-MB-435
SF-295 = test system: SF-295
MCF7 = test system: MCF7
UACC-257 = test system: UACC-257
NCI-H23 = test system: NCI-H23
KM12 = test system: KM12
SNB-19 = test system: SNB-19
SW-620 = test system: SW-620
A549 = test system: A549
SK-MEL-28 = test system: SK-MEL-28
SK-OV-3 = test system: SK-OV-3
COLO 205 = test system: COLO 205
SF-268 = test system: SF-268
HCC 2998 = test system: HCC 2998

Compound	GI50 (SN12C)	GI50 (TK-10)	GI50 (HOP-62)	GI50 (UO-31)	GI50 (HCT-116)	GI50 (M14)	GI50 (MDA-MB-435)	GI50 (SF-295)	GI50 (MCF7)	GI50 (UACC-257)	GI50 (NCI-H23)	GI50 (KM12)	GI50 (SNB-19)	GI50 (SW-620)	GI50 (A549)	GI50 (SK-MEL-28)	GI50 (SK-OV-3)	GI50 (COLO 205)	GI50 (SF-268)	GI50 (HCC 2998)
N#CC(C/C=C/c1ccccc1)NNC(=O)c1c(Cl)c(Cl)c(Cl)c(Cl)c1-c1nc2cc(C(=O)c3ccccc3)ccc2[nH]1 (stereo unspecified)	14.8 µM (inactive)	22.8 µM (inactive)	6.14 µM (inactive)	21.5 µM (inactive)	20 µM (inactive)	14.9 µM (inactive)	4.11 µM (inactive)	3.92 µM (inactive)	7.94 µM (inactive)	25.5 µM (inactive)	17.9 µM (inactive)	23.4 µM (inactive)	14.8 µM (inactive)	22.8 µM (inactive)	18.1 µM (inactive)	16.3 µM (inactive)	16.9 µM (inactive)	15 µM (inactive)		
C1=N\CCNCCNCC/N=C\c2ccc(cc2)OCc2cccc(n2)COc2ccc/1cc2	> 100 µM (inactive)		> 100 µM (inactive)	> 100 µM (inactive)	> 100 µM (inactive)	> 100 µM (inactive)	75.2 µM (inactive)	> 100 µM (inactive)	29.8 µM (inactive)	88.5 µM (inactive)	86.3 µM (inactive)	33.2 µM (inactive)	> 100 µM (inactive)	95.5 µM (inactive)	> 100 µM (inactive)	> 100 µM (inactive)	> 100 µM (inactive)	> 100 µM (inactive)	83.6 µM (inactive)	
CCCCCCCC(=O)NC(C)(C)C(=O)NCC(=O)NC(CC(C)C)C(=O)NC(C)(C)C(=O)NCC(=O)NCC(=O)NC(CC(C)C)C(=O)NC(C)(C)C(=O)NCC(=O)NC(C(=O)NC(CO)CC(C)C)C(C)CC (stereo unspecified)	4.28 µM (inactive)	4.66 µM (inactive)	4.28 µM (inactive)	4.3 µM (inactive)	3.78 µM (inactive)	4.21 µM (inactive)	3.94 µM (inactive)	4.26 µM (inactive)		4.41 µM (inactive)	3.93 µM (inactive)	1.41 µM (inactive)	3.57 µM (inactive)	4.02 µM (inactive)	4.36 µM (inactive)	3.72 µM (inactive)	4.2 µM (inactive)	3.81 µM (inactive)	4.11 µM (inactive)	4.29 µM (inactive)
COCC1OC([P+](c2ccccc2)(c2ccccc2)c2ccccc2)CC(OC)C1OC (stereo unspecified)	29.1 µM (inactive)	55.7 µM (inactive)		> 100 µM (inactive)	32.6 µM (inactive)	40.8 µM (inactive)	29.6 µM (inactive)	34.2 µM (inactive)	38 µM (inactive)	21 µM (inactive)	48.6 µM (inactive)	34.5 µM (inactive)	34.7 µM (inactive)	35.5 µM (inactive)		68.1 µM (inactive)	32.6 µM (inactive)			
O=[N+]([O-])c1cccc2nc3ccccc3c(NCCCCCNc3c4ccccc4nc4cccc([N+](=O)[O-])c34)c12	0.0151 µM (active)	0.0242 µM (active)	0.0579 µM (active)	0.134 µM (active)	0.0117 µM (active)	0.0607 µM (active)		0.137 µM (active)	0.0161 µM (active)	0.139 µM (active)	0.0412 µM (active)	0.0461 µM (active)	0.116 µM (active)	0.0158 µM (active)	0.0366 µM (active)	0.171 µM (active)	0.19 µM (active)	0.0246 µM (active)	0.0313 µM (active)	0.0243 µM (active)
CC1N(O)C(c2ccccc2)C(c2ccccc2)=[N+]1[O-] (stereo unspecified)	> 100 µM (inactive)	> 100 µM (inactive)	> 100 µM (inactive)	> 100 µM (inactive)	> 100 µM (inactive)	> 100 µM (inactive)		> 100 µM (inactive)	> 100 µM (inactive)	> 100 µM (inactive)	> 100 µM (inactive)	> 100 µM (inactive)	> 100 µM (inactive)	> 100 µM (inactive)	> 100 µM (inactive)	> 100 µM (inactive)	> 100 µM (inactive)	> 100 µM (inactive)		> 100 µM (inactive)
Cc1cccc(/N=C/C=C(\Cl)c2ccc3ccccc3c2)c1	16.6 µM (inactive)	19.8 µM (inactive)	17 µM (inactive)	16.2 µM (inactive)	2.98 µM (inactive)	17.1 µM (inactive)	18.1 µM (inactive)	32.1 µM (inactive)	16.4 µM (inactive)	15.7 µM (inactive)	13.9 µM (inactive)	17.7 µM (inactive)	13.9 µM (inactive)	9.46 µM (inactive)	44.6 µM (inactive)	17.5 µM (inactive)	23.4 µM (inactive)	17.9 µM (inactive)	22.9 µM (inactive)	
COC(=O)C1(C(=O)OC)CC2=C(S(=O)(=O)c3ccccc3)C[C@H](S(=O)(=O)c3ccccc3)[C@H]2C1	> 100 µM (inactive)	52.4 µM (inactive)	78.9 µM (inactive)	> 100 µM (inactive)	70.5 µM (inactive)	> 100 µM (inactive)	76.4 µM (inactive)	> 100 µM (inactive)		> 100 µM (inactive)	> 100 µM (inactive)	91.8 µM (inactive)	71.6 µM (inactive)	> 100 µM (inactive)	> 100 µM (inactive)	> 100 µM (inactive)	> 100 µM (inactive)	62.4 µM (inactive)	> 100 µM (inactive)	15.7 µM (inactive)
CC(C)/C(Cl)=N\OC(=O)Nc1ccc(S(N)(=O)=O)cc1	13.9 µM (inactive)	17.9 µM (inactive)	> 42.6 µM (inactive)	16.6 µM (inactive)	13.5 µM (inactive)	8.13 µM (inactive)		15.7 µM (inactive)	12.1 µM (inactive)	17.4 µM (inactive)	19.2 µM (inactive)	18.4 µM (inactive)	> 53.2 µM (inactive)	1.86 µM (inactive)	20 µM (inactive)	16.2 µM (inactive)	17.7 µM (inactive)	1.98 µM (inactive)	23.9 µM (inactive)	18 µM (inactive)
Cc1ccc2c(=O)c(-c3nnc(NC4CCCCC4)s3)c[nH]c2n1	> 100 µM (inactive)	> 100 µM (inactive)	> 100 µM (inactive)	> 100 µM (inactive)	> 100 µM (inactive)	> 100 µM (inactive)	> 100 µM (inactive)	81.7 µM (inactive)	> 100 µM (inactive)	> 100 µM (inactive)	> 100 µM (inactive)	> 100 µM (inactive)	> 100 µM (inactive)	> 100 µM (inactive)	> 100 µM (inactive)	> 100 µM (inactive)		> 100 µM (inactive)	> 100 µM (inactive)	
NC(Cc1cc(Br)c(O)c(Br)c1)C(=O)O (stereo unspecified)	> 100 µM (inactive)	> 100 µM (inactive)	> 100 µM (inactive)		> 100 µM (inactive)	> 100 µM (inactive)	> 100 µM (inactive)	> 100 µM (inactive)	> 100 µM (inactive)	> 100 µM (inactive)	> 100 µM (inactive)	> 100 µM (inactive)	> 100 µM (inactive)	> 100 µM (inactive)	> 100 µM (inactive)	> 100 µM (inactive)	> 100 µM (inactive)	> 100 µM (inactive)	> 100 µM (inactive)	
O=[N+]([O-])c1ccc(CSCc2ccc(Cl)cc2)cc1	> 100 µM (inactive)	> 100 µM (inactive)	> 100 µM (inactive)	> 100 µM (inactive)	92.3 µM (inactive)	> 100 µM (inactive)	> 100 µM (inactive)	> 100 µM (inactive)	> 100 µM (inactive)	> 100 µM (inactive)	> 100 µM (inactive)	> 100 µM (inactive)	> 100 µM (inactive)	> 100 µM (inactive)	> 100 µM (inactive)	> 100 µM (inactive)	> 100 µM (inactive)	> 100 µM (inactive)	> 100 µM (inactive)	
O=c1[nH]nc(Cc2ccc([N+](=O)[O-])cc2)n1CCO	> 100 µM (inactive)	> 100 µM (inactive)		> 100 µM (inactive)	> 100 µM (inactive)	> 100 µM (inactive)	> 100 µM (inactive)	> 100 µM (inactive)	> 100 µM (inactive)	> 100 µM (inactive)	> 100 µM (inactive)	> 100 µM (inactive)	> 100 µM (inactive)	> 100 µM (inactive)	> 100 µM (inactive)	> 100 µM (inactive)	> 100 µM (inactive)	> 100 µM (inactive)	> 100 µM (inactive)	> 100 µM (inactive)
c1ccc(COC2NCCN2Cc2ccccc2)cc1 (stereo unspecified)	> 100 µM (inactive)	> 100 µM (inactive)	> 100 µM (inactive)	> 100 µM (inactive)	> 100 µM (inactive)	> 100 µM (inactive)	> 100 µM (inactive)	> 100 µM (inactive)	> 100 µM (inactive)	61 µM (inactive)	> 100 µM (inactive)	> 100 µM (inactive)	> 100 µM (inactive)	> 100 µM (inactive)	> 100 µM (inactive)	> 100 µM (inactive)	> 100 µM (inactive)	> 100 µM (inactive)	> 100 µM (inactive)	
Cn1cc2c(=O)n3ncn(-c4ccc(Br)cc4)c3nc2n1	> 100 µM (inactive)	> 100 µM (inactive)		> 100 µM (inactive)	> 100 µM (inactive)	> 100 µM (inactive)	> 100 µM (inactive)	> 100 µM (inactive)	> 100 µM (inactive)	> 100 µM (inactive)	> 100 µM (inactive)	> 100 µM (inactive)	> 100 µM (inactive)	> 100 µM (inactive)	> 100 µM (inactive)	> 100 µM (inactive)	> 100 µM (inactive)	> 100 µM (inactive)	> 100 µM (inactive)	> 100 µM (inactive)
